According to paper PMC9551036, “A selective and orally bioavailable VHL-recruiting PROTAC achieves SMARCA2 degradation in vivo” (Nature Communications, 2022):
“And” between values parts separate entries of the source, which are not always exact repeats. Identical values can stand only once. “Also recorded” adds a separate entry of the source. Like-named read-outs stand apart in the source and are kept apart here.

Experiments:
SMARCA2 = SMARCA2 (Homo sapiens, UniProt P51531); assay: SMARCA2 IHC in NCI-H1568 xenograft tumours; format: in vivo, mouse; design: from tissue; host or cells: subcutaneous NCI-H1568 or A549 xenograft tumours in BomTac:NMRI-Foxn1nu mice; conditions: NCI-H1568 xenograft; for SMARCA2 (OD, normalised) / SMARCA2 Nuclear OD: qd, end of study
Description: To establish subcutaneous tumours, mice were injected with 5 × 10^6 NCI-H1568 in PBS with 5% FCS or with 1 × 10^7 A549 cells in PBS with 5% FCS. Tumour diameters were measured with a caliper three times a week. The volume of each tumour (in mm^3) was calculated according to the formula [tumour volume = length × diameter^2 × π/6]. To monitor side effects of treatment, mice were inspected daily for abnormalities and body weight was determined daily after the start of treatment. Animals were sacrificed when the tumours reached a size of 1500 mm^3. Mice were randomised into treatment groups when the average tumour size reached ~210–220 mm^3. Group sizes were calculated individually for each tumour model based on tumour growth during model establishment experiments. A power analysis was performed using a sample size calculator (https://www.stat.ubc.ca/~rollin/stats/ssize/n2.html). For both models used in the study, 10 mice per group were used for each experiment. All administrations were dosed with 10 ml/kg (s.c. and oral). Control mice were dosed subcutaneously with 10% HP-β-CD in 50% Ringer solution and orally with 15% HP-β-CD, that means the control mouse treatment was corresponding to the solvent of the compounds. Compound 6 was dosed subcutaneously either in a d1-4 q3d, d6-8 q2d, d11-13 q2d treatment (Treatment 1) or a q3 or 4d treatment (Treatment 2).
Xenograft samples were fixed in 10% formaldehyde for 24 h and later moved to ethanol and embedded in paraffin. 2 µm-thick sections were cut using a microtome, then placed on glass slides ([…], silan printer slides PR-S:001), and subsequently dewaxed. SMARCA2 immunohistochemistry was carried out on the Leica BOND RX platform (Leica Biosystems) according to manufacturer’s instructions using a human-specific SMARCA2 antibody (Cell Signalling #11966 clone D9E8B RRID:AB_2797783 1:400) where the tissue underwent a heat-induced epitope retrieval for 20 min. After staining, the slides were cover-slipped with Shandon Consul-Mount glass covers, scanned using a slide scanner (3D HISTECH Ltd.). All slides were reviewed and evaluated for quality by a board-certified MD specialist in Anatomic Pathology (PC). Imaging analysis was performed using the digital pathology platform HALO (Indica Labs). A tissue-classifying algorithm was trained to selectively recognise viable tumour tissue against stroma, necrosis, and skin. The tissue classification output for each scan was reviewed and manually edited as necessary. A cell detection and scoring algorithm was trained to measure DAB optical density (OD) in the nuclei of tumour cells. A positivity threshold for DAB OD was determined by normalisation with respect to the DAB OD as calculated from bona fide negative tissue (e.g. murine stroma as background). The average, background-normalised DAB OD of tumour cell nuclei was used to quantitate SMARCA2 expression in each xenograft sample.

[1] = Pharmacokinetic analyses in mouse; format: in vivo; conditions: for AUC(0-t): read-out: AUC0-24h; for Vd: read-out: Vss
Description: Compound concentrations in plasma aliquots were measured by quantitative HPLC-MS/MS using an internal standard. Calibration and quality control samples were prepared using blank plasma from untreated animals. Samples were precipitated with acetonitrile and injected into a HPLC system (Agilent 1200). Separation was performed by gradients of 5 mmol/L ammonium acetate pH 4.0 and acetonitrile with 0.1% formic acid on a 2.1 mm by 50 mm XBridge BEH C18 reversed-phase column with 2.5 µm particles (Waters). The HPLC was interfaced by ESI operated in positive ionisation mode to a triple quadrupole mass spectrometer (5000 or 6500+ Triple Quad System, SCIEX) operated in multiple reaction monitoring mode. Transitions were 532.4 to 432.8 m/z for BI01810284, 525.6 to 425.7 m/z for BI01802983 and 1021.6 to 624.2 m/z for BI01580883. Chromatograms were analyzed with Analyst (SCIEX) and pharmacokinetic parameters were calculated by non-compartmental analysis using BI-proprietary software.

[2] = 30 mg/kg po, individual tumours, 30 mg/kg
[3] = 100 mg/kg, PO, 48 h, individual tumours
[4] = 5 mg/kg i.v., individual animals
[5] = 30 mg/kg p.o., individual animals
[6] = NMRI, mouse, plasma, iv, 5 mg/kg, NMRI mice, i.v., 5 mg/kg, PK study
[7] = mouse, 5 mg/kg i.v., NCA, individual animals, 5 mg/kg
[8] = mouse, 30 mg/kg p.o., NCA, individual animals, 30 mg/kg

Sequence of SMARCA2 (P51531 whole entry): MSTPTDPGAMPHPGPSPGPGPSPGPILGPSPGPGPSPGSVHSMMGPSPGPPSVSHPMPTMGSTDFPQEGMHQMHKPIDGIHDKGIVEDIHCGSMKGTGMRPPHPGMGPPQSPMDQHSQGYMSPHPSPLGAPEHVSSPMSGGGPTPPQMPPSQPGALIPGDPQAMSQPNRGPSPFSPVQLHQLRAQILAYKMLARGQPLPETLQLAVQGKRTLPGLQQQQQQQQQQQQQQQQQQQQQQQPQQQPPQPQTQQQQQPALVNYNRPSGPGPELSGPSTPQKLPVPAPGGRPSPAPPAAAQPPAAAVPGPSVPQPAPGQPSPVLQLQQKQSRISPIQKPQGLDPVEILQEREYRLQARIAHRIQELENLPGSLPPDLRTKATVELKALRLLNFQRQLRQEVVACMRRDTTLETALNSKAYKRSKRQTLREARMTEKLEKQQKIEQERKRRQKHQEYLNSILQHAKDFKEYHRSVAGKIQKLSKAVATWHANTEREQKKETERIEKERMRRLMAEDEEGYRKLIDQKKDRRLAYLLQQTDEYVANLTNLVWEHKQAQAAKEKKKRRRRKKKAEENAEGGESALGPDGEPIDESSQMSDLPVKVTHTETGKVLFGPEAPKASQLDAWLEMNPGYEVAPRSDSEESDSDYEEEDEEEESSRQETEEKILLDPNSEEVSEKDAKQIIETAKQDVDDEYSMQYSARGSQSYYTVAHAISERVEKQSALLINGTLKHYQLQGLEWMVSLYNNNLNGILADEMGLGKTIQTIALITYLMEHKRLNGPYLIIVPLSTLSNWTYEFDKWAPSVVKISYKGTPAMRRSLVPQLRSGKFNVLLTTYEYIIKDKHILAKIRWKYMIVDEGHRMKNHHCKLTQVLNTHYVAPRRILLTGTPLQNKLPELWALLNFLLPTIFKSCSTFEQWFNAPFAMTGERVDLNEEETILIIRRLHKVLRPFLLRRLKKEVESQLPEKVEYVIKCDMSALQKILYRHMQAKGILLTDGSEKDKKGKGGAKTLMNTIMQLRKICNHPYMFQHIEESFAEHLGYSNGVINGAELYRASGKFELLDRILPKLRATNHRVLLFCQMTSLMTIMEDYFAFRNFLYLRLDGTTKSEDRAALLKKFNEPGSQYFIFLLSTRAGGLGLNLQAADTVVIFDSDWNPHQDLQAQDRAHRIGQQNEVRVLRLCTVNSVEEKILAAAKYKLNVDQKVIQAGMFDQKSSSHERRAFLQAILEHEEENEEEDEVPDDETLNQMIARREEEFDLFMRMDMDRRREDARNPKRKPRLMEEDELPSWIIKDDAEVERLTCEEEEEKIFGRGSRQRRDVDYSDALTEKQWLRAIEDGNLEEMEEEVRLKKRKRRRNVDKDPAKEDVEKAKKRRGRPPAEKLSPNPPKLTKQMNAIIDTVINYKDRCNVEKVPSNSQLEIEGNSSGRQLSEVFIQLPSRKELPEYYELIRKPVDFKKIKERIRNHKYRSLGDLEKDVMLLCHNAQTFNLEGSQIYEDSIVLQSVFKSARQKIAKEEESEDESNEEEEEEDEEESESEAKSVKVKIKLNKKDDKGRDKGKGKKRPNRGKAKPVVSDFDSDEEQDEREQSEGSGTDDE

Cc1ncsc1-c1ccc([C@H](CCCCCN2CCC(c3ccc4c(c3)n(C3CCCC3)c3nc(=O)c5c(Br)cccc5n43)CC2)NC(=O)[C@@H]2C[C@@H](O)CN2C(=O)[C@@H](NC(=O)C2(F)CC2)C(C)(C)C)cc1 [compound 11]
SMARCA2 levels in tumours at the end of the efficacy study, IHC (SMARCA2): undetectable by IHC in most treated tumour samples; also recorded: below the limit of detection
SMARCA2 (OD, normalised) (SMARCA2; [2]): 0.00000 and 0.00917
SMARCA2 Nuclear OD (SMARCA2; [2]): 0.03172 and 0.04361 and 0.06213 and 0.0483
median decrease of SMARCA2 levels in viable tumour tissue compared to vehicle (SMARCA2; 100 mg/kg p.o., 48 h after treatment): 89%
SMARCA2 (OD, normalised) (SMARCA2; 100 mg/kg po, individual tumours): 0.00000
SMARCA2 Nuclear OD (SMARCA2; 100 mg/kg po, individual tumours, 100 mg/kg): 0.03159 and 0.03653 and 0.04664 and 0.03486
Avg Stain 1 Nuclear OD (SMARCA2 IHC) (SMARCA2; [3]): 7.84E-02 and 7.05E-02 and 6.17E-02 and 6.89E-02
Normalised SMARCA2 (OD) (SMARCA2; [3]): 0.04325 and 0.03531 and 0.02651 and 0.03377
AUC [1, 4]: 40.7 µM·h and 36.8 µM·h
AUCinf [1, 4]: 40.9 µM·h and 37 µM·h
Concentration ([1]; 5 mg/kg i.v., time 0.25 h, individual animals): 8050 nM
Concentration ([1]; 5 mg/kg i.v., time 1 h, individual animals): 5350 nM
Concentration ([1]; 5 mg/kg i.v., time 6 h, individual animals): 807 nM
Concentration ([1]; 5 mg/kg i.v., time 24 h, individual animals): 37.6 nM
F ([1]; 30 mg/kg p.o. vs 5 mg/kg i.v., individual animals): 4.09% and 2.11% and 6.74%
AUC [1, 5]: 8.84 µM·h and 4.54 µM·h and 14.6 µM·h
AUCinf [1, 5]: 8.88 µM·h and 4.57 µM·h and 14.6 µM·h
MRT ([1]; NMRI, mouse, plasma, iv, 5 mg/kg, NMRI mice, PK study): 2.9 h
AUC(0-t) [1, 6]: 36 µM·h
AUC(0-inf) ([1]; NMRI, mouse, plasma, iv, 5 mg/kg, NMRI mice, i.v., 5 mg/kg, PK study, read-out: AUC0-inf): 36 µM·h
clearance ([1]; NMRI, mouse, plasma, iv, 5 mg/kg, NMRI mice, i.v., 5 mg/kg, PK study, read-out: Clearance): 2.2 mL/min/kg
Vd [1, 6]: 0.38 L/kg
MRT ([1]; NMRI, mouse, plasma, po, 30 mg/kg, NMRI mice, PK study): 5 h
MRT ([1]; NMRI, mouse, plasma, po, 30 mg/kg, NMRI mice, Xenograft study): 5.6 h
AUC(0-t) ([1]; NMRI, mouse, plasma, po, 30 mg/kg, NMRI mice, p.o., 30 mg/kg, PK study): 9.3 µM·h
AUC(0-inf) ([1]; NMRI, mouse, plasma, po, 30 mg/kg, NMRI mice, p.o., 30 mg/kg, PK study, read-out: AUC0-inf): 9.4 µM·h
bioavailability ([1]; NMRI, mouse, plasma, po, 30 mg/kg, NMRI mice, p.o., 30 mg/kg, PK study, read-out: Bioavailability): 4.3%
AUC(0-t) ([1]; NMRI, mouse, plasma, po, 30 mg/kg, NMRI mice, p.o., 30 mg/kg, Xenograft study): 21 µM·h
AUC(0-inf) ([1]; NMRI, mouse, plasma, po, 30 mg/kg, NMRI mice, p.o., 30 mg/kg, Xenograft study, read-out: AUC0-inf): 21 µM·h
MRT ([1]; NMRI, mouse, plasma, po, 100 mg/kg, NMRI mice): 5.1 h
AUC(0-t) ([1]; NMRI, mouse, plasma, po, 100 mg/kg, NMRI mice, p.o., 100 mg/kg): 38 µM·h
AUC(0-inf) ([1]; NMRI, mouse, plasma, po, 100 mg/kg, NMRI mice, p.o., 100 mg/kg, read-out: AUC0-inf): 39 µM·h
Plasma concentration ([1]; mouse, 5 mg/kg i.v., 0.25 h, individual animals, 5 mg/kg): 9710 nM and 10400 nM
Plasma concentration ([1]; mouse, 5 mg/kg i.v., 1 h, individual animals, 5 mg/kg): 5970 nM and 6930 nM
Plasma concentration ([1]; mouse, 5 mg/kg i.v., 6 h, individual animals, 5 mg/kg): 1490 nM and 870 nM
Plasma concentration ([1]; mouse, 5 mg/kg i.v., 24 h, individual animals, 5 mg/kg): 42.1 nM and 41.5 nM
AUC [1, 7]: 40.7 µM·h and 36.8 µM·h
AUCinf [1, 7]: 40.9 µM·h and 37 µM·h
CL [1, 7]: 1.94 mL/min/kg and 2.14 mL/min/kg
Vss [1, 7]: 0.386 L/kg and 0.334 L/kg
Plasma concentration ([1]; mouse, 30 mg/kg p.o., 0.333 h, individual animals, 30 mg/kg): 172 nM and 94.6 nM and 199 nM
Plasma concentration ([1]; mouse, 30 mg/kg p.o., 1 h, individual animals, 30 mg/kg): 438 nM and 509 nM
Plasma concentration ([1]; mouse, 30 mg/kg p.o., 2 h, individual animals, 30 mg/kg): 577 nM and 1020 nM
Plasma concentration ([1]; mouse, 30 mg/kg p.o., 6 h, individual animals, 30 mg/kg): 565 nM and 239 nM and 1040 nM
Plasma concentration ([1]; mouse, 30 mg/kg p.o., 24 h, individual animals, 30 mg/kg): 6.48 nM and 10.4 nM
AUC [1, 8]: 8.84 µM·h and 4.54 µM·h and 14.6 µM·h
AUCinf [1, 8]: 8.88 µM·h and 4.57 µM·h and 14.6 µM·h
F [1, 8]: 4.09% and 2.11% and 6.74%
concentration at 0.25 h ([1]; mouse, plasma, intravenous, 5 mg/kg, 5 mg/kg i.v., time 0.25 h, individual animals, read-out: Concentration): 9710 nM
concentration at 1 h ([1]; mouse, plasma, intravenous, 5 mg/kg, 5 mg/kg i.v., time 1 h, individual animals, read-out: Concentration): 5970 nM
concentration at 6 h ([1]; mouse, plasma, intravenous, 5 mg/kg, 5 mg/kg i.v., time 6 h, individual animals, read-out: Concentration): 1490 nM
concentration at 24 h ([1]; mouse, plasma, intravenous, 5 mg/kg, 5 mg/kg i.v., time 24 h, individual animals, read-out: Concentration): 42.1 nM
AUC ([1]; mouse, plasma, iv, 5 mg/kg, 5 mg/kg i.v., individual animals, read-out: AUC): 30.4 µM·h
AUC(0-inf) ([1]; mouse, plasma, iv, 5 mg/kg, 5 mg/kg i.v., individual animals, read-out: AUCinf): 30.6 µM·h
concentration at 0.25 h ([1]; mouse, plasma, iv, 5 mg/kg, mouse, 5 mg/kg i.v., 0.25 h, individual animals, read-out: Plasma concentration): 8050 nM
concentration at 1 h ([1]; mouse, plasma, iv, 5 mg/kg, mouse, 5 mg/kg i.v., 1 h, individual animals, read-out: Plasma concentration): 5350 nM
concentration at 6 h ([1]; mouse, plasma, iv, 5 mg/kg, mouse, 5 mg/kg i.v., 6 h, individual animals, read-out: Plasma concentration): 807 nM
concentration at 24 h ([1]; mouse, plasma, iv, 5 mg/kg, mouse, 5 mg/kg i.v., 24 h, individual animals, read-out: Plasma concentration): 37.6 nM
AUC ([1]; mouse, plasma, iv, 5 mg/kg, mouse, 5 mg/kg i.v., NCA, individual animals, read-out: AUC): 30.4 µM·h
AUC(0-inf) ([1]; mouse, plasma, iv, 5 mg/kg, mouse, 5 mg/kg i.v., NCA, individual animals, read-out: AUCinf): 30.6 µM·h
clearance ([1]; mouse, plasma, iv, 5 mg/kg, mouse, 5 mg/kg i.v., NCA, individual animals, read-out: CL): 2.59 mL/min/kg
Vd ([1]; mouse, plasma, iv, 5 mg/kg, mouse, 5 mg/kg i.v., NCA, individual animals): 0.435 L/kg
Vd ([1]; mouse, plasma, iv, 5 mg/kg, mouse, 5 mg/kg i.v.): 0.385 L/kg
clearance ([1]; mouse, plasma, iv, 5 mg/kg, mouse, 5 mg/kg i.v., read-out: clearance): 2.2 mL/min/kg
concentration at 1 h ([1]; mouse, plasma, oral, 30 mg/kg, 30 mg/kg p.o., time 1 h, individual animals, read-out: Concentration): 337 nM
concentration at 2 h ([1]; mouse, plasma, oral, 30 mg/kg, 30 mg/kg p.o., time 2 h, individual animals, read-out: Concentration): 874 nM
concentration at 24 h ([1]; mouse, plasma, oral, 30 mg/kg, 30 mg/kg p.o., time 24 h, individual animals, read-out: Concentration): 8.75 nM
bioavailability ([1]; mouse, plasma, oral, 30 mg/kg, mouse, 30 mg/kg p.o. vs 5 mg/kg i.v., read-out: F% p.o. (oral bioavailability)): 3%
concentration at 1 h ([1]; mouse, plasma, po, 30 mg/kg, mouse, 30 mg/kg p.o., 1 h, individual animals, read-out: Plasma concentration): 337 nM
concentration at 2 h ([1]; mouse, plasma, po, 30 mg/kg, mouse, 30 mg/kg p.o., 2 h, individual animals, read-out: Plasma concentration): 874 nM
concentration at 24 h ([1]; mouse, plasma, po, 30 mg/kg, mouse, 30 mg/kg p.o., 24 h, individual animals, read-out: Plasma concentration): 8.75 nM
